In publication PMC10382516, “Exploring ND-011992, a quinazoline-type inhibitor targeting quinone reductases and quinol oxidases” (Scientific Reports, 2023):
pIC50: −log10 of the molar value.

Experiments:
[1] = test system: NADH oxidase activity of membranes from E. coli strain BL21*Δcyo; assay: NADH oxidase activity of E. coli BL21*Δcyo cytoplasmic membranes (Clark-type oxygen electrode); assay type: biochemical, Escherichia coli
Description: (§1) The inhibitory effect of ND-011992 on the NADH oxidase activity of membranes from E. coli strain BL21*Δcyo was determined. This activity is mainly mediated by the primary NADH dehydrogenases and the terminal oxidases. Strain BL21*Δcyo chromosomally lacks the bo3-oxidase and contains the homologous bd-I and bd-II oxidases as the only terminal oxidases. BL21*Δcyo was grown in full medium, cells were harvested and disrupted and cytoplasmic membranes were prepared by differential centrifugation. With NADH as substrate, electrons might enter the respiratory chain either via complex I or via the alternative, non-energy converting NADH dehydrogenase, NDH-II. […] Second, deamino-NADH (d-NADH) was used as substrate to determine the d-NADH oxidase activity of BL21*Δcyo membranes. d-NADH is a substrate specific for complex I preventing electron entry to the respiratory chain via NDH-II[15],[16]. […] The shift of the IC50 in dependence from the substrate already indicates a high-affinity inhibition of respiratory complex I by ND-011992.
(§2) The (d-)NADH oxidase activity of cytoplasmic membranes was determined with an Clark-type oxygen electrode (Oxyview System, Hansatech Instruments) at 30 °C[19]. […] The non-enzymatic reaction was determined after formation of a stable baseline. […] The protein concentration of membranes were determined by the biuret-method[32]. […]

[2] = test system: d-NADH oxidase activity of BL21*Δcyo membranes; assay: d-NADH oxidase activity of E. coli BL21*Δcyo cytoplasmic membranes; assay type: biochemical, Escherichia coli; conditions: d-NADH as substrate, 30 °C
Description: as §1, §2

respiratory complex I = respiratory complex I (Escherichia coli, UniProt P0AFC7+P0AFD4+P33599); assay: d-NADH:decyl-ubiquinone oxidoreductase activity of E. coli CBO cytoplasmic membranes; assay type: biochemical; conditions: 1 mM KCN
E. coli bd-I oxidase = target: T1, E. coli bd-I oxidase (Escherichia coli, UniProt P0ABJ9); assay: Duroquinol:oxygen oxidoreductase activity of isolated bd-I oxidase; assay type: biochemical
T1 construct: His-tag; made in house; host or cells: E. coli BL21*Δcyo/pET28b(+)::cydAhisBX
T1 sequence (P0ABJ9 whole entry): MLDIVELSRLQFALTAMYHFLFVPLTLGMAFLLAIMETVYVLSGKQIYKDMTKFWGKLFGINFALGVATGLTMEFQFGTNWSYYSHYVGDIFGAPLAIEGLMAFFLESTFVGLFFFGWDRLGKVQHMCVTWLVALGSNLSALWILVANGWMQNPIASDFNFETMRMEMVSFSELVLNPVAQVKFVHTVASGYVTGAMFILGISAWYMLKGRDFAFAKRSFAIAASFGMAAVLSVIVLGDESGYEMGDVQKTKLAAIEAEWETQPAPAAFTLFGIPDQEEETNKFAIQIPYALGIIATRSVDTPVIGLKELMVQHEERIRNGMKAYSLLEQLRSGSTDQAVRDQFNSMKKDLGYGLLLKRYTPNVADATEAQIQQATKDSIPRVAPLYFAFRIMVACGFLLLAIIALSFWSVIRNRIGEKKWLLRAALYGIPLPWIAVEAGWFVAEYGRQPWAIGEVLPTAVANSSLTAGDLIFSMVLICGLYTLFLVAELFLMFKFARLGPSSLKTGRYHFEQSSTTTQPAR
T1 sequence (P56100 whole entry, further chain): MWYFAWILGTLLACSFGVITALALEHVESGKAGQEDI
T1 sequence (P0ABK2 whole entry, further chain): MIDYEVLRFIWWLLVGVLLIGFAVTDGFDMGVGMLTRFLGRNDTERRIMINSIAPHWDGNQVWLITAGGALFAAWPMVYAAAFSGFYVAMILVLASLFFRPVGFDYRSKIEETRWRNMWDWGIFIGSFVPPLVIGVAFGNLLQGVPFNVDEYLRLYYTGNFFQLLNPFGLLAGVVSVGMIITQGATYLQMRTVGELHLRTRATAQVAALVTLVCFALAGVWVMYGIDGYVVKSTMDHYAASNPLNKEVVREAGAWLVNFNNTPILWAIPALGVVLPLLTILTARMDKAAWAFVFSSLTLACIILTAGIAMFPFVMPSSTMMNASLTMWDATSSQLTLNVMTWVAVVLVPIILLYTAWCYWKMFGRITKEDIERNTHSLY
Description: (§3) E. coli bd-I oxidase was isolated from strain BL21*Δcyo/pET28b( +)::cydAhisBX[13], bd-II oxidase from strain BL21*Δcyo/pET28b( +)::appChisBX[19] and bo3 oxidase from strain BL21*Δcyo/pET28b( +)::cyoAhisBCD (see ‘Methods’). The index “his” indicates the subunit of the enzyme complexes decorated with a His-tag. All strains were grown under oxic conditions in full medium. Cells were harvested and disrupted and cytoplasmic membranes were prepared by differential centrifugation. Membrane proteins were extracted with the detergent lauryl maltose neopentyl glycol (LMNG) and purified to homogeneity by affinity-, anion exchange- and size exclusion-chromatography (see Supplementary Figs. S7–S9).
(§4) The affinity of ND-011992 towards the isolated oxidases was determined by its inhibition of the duroquinol:oxygen oxidoreductase activity measured as decrease of oxygen concentration. […] Thus, there is a significant two-fold difference in binding of ND-011992 towards the two homologous oxidases. Furthermore, the IC50 is higher than that to respiratory complex I, showing that the compound binds better to complex I than to bd-I and to bd-II oxidase. Incorporation of bromine to the compound led to significant changes of inhibition.
(§5) The duroquinol:oxygen oxidoreductase activity of isolated E. coli bd-I, bd-II and bo3 oxidase was determined by monitoring the oxygen consumption with a Clark-type oxygen electrode (Oxyview System, Hansatech Instruments)[20],[33]. All steps were conducted at 30 °C. The reaction chamber was filled with 2 mL 20 mM MOPS, 20 mM NaCl, 0.003% LMNG, pH 7.0. After formation of a stable baseline, 10 μL dithiothreitol (DTT) (1 M) and 5 μL duroquinone in ethanol (100 mM) were added and incubated for 1 min. The non-enzymatic reaction rate was determined. 10 μL enzyme in LMNG (2 mg/mL) were added to start the reaction. The rates were corrected for the non-enzymatic reaction. After 1 min, the reaction was inhibited by adding various amounts (0.01–50 µM) of ND-011992 and 2, respectively. Each data point was measured in triplicates. The standard deviation of each measurement is provided.

E. coli bd-II oxidase = target: T2, E. coli bd-II oxidase (Escherichia coli, UniProt P26459); assay: Duroquinol:oxygen oxidoreductase activity of isolated bd-II oxidase; assay type: biochemical
T2 construct: His-tag; made in house; host or cells: E. coli BL21*Δcyo/pET28b(+)::appChisBX
T2 sequence (P26458 whole entry): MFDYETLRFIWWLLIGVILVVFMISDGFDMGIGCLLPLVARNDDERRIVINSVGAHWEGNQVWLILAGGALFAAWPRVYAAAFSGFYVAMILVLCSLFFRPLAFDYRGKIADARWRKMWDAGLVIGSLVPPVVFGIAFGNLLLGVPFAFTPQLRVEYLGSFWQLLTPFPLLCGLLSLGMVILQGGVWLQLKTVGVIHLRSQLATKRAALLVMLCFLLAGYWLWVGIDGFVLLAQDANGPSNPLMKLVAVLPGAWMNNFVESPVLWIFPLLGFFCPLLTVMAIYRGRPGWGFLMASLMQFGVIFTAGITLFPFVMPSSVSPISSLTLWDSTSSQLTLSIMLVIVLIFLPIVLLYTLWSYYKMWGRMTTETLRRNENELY
T2 sequence (P24244 whole entry, further chain): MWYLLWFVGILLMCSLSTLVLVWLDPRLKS
T2 sequence (P26459 whole entry): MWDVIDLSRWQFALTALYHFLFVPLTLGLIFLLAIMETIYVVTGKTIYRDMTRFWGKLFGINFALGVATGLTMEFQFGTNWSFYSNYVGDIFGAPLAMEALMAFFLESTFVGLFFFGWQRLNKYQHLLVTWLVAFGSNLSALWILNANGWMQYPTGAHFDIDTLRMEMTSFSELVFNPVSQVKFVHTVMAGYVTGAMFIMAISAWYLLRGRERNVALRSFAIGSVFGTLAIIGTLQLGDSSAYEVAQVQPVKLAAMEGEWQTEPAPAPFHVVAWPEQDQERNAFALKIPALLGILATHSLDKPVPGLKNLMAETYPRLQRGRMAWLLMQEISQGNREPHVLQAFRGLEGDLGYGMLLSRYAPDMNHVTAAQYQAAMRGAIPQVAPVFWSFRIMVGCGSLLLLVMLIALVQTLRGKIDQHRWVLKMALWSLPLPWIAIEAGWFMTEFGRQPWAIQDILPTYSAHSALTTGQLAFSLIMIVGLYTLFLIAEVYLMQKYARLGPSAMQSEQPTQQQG
Description: as §3, §4, §5

E. coli bo3 oxidase = target: T3, E. coli bo3 oxidase (Escherichia coli, UniProt P0ABI8); assay: Duroquinol:oxygen oxidoreductase activity of isolated bo3 oxidase; assay type: biochemical
T3 construct: made in house; host or cells: E. coli BL21*Δcyo/pET28b(+)::cyoAhisBCD
T3 sequence (P0ABJ6 whole entry): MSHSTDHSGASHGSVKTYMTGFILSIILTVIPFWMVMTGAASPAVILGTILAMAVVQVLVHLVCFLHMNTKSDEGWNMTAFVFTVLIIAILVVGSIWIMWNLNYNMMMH
T3 sequence (P0ABJ3 whole entry, further chain): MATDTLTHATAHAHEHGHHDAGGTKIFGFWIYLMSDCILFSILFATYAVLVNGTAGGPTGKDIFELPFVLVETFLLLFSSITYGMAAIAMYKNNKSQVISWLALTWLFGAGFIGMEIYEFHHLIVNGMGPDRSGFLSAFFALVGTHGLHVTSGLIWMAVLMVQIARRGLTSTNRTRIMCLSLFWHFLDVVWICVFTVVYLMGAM
T3 sequence (P0ABJ1 25-315, further chain): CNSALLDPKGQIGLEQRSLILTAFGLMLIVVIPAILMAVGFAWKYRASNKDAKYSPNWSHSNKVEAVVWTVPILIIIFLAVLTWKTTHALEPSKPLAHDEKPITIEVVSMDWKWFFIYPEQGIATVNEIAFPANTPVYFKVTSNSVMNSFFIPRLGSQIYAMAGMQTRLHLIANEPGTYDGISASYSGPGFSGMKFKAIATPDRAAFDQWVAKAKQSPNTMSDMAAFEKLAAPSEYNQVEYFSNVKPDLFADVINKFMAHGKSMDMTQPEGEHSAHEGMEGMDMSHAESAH
T3 sequence (P0ABI8 whole entry): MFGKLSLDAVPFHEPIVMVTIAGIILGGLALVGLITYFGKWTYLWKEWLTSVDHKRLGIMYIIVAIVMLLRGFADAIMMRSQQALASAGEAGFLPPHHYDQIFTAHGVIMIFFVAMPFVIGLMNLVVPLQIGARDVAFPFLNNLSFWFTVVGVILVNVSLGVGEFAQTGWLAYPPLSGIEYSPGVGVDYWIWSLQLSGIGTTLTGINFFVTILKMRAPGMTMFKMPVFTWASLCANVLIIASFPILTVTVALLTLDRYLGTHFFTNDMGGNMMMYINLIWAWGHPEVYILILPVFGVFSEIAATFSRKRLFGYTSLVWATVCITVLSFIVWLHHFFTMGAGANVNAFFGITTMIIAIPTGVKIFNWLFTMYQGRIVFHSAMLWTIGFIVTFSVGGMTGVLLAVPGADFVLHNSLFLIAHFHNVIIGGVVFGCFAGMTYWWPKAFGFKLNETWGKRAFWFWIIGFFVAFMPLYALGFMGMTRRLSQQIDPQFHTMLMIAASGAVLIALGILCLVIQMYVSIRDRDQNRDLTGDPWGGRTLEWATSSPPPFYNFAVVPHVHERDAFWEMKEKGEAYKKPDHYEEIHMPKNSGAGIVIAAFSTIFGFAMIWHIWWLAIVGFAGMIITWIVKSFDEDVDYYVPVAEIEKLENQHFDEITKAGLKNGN
Description: as §3
Because it was claimed that ND-011992 is an inhibitor specific for bd oxidases, we also determined its IC50 towards the isolated bo3 oxidase. As bd oxidases, bo3 oxidase is also a quinol oxidase.
The duroquinol:oxygen oxidoreductase activity of isolated E. coli bd-I, bd-II and bo3 oxidase was determined by monitoring the oxygen consumption with a Clark-type oxygen electrode (Oxyview System, Hansatech Instruments)[20],[33]. All steps were conducted at 30 °C. The reaction chamber was filled with 2 mL 20 mM MOPS, 20 mM NaCl, 0.003% LMNG, pH 7.0. […] The non-enzymatic reaction rate was determined. […] Each data point was measured in triplicates. […]

mitochondrial complex I = mitochondrial complex I (Bos taurus, UniProt P03887+P17694+P42026); assay type: biochemical, bovine
[3] = design: method as in PMID 33283973; conditions: as mentioned in the original publication; cited from earlier work

SMILES	pIC50 ([1]; E. coli BL21*Δcyo membranes, NADH as substrate, 30 °C)	pIC50 [2]	pIC50 (respiratory complex I)	pIC50 (E. coli bd-I oxidase)	residual activity (E. coli bd-I oxidase; isolated bd-I oxidase, partial inhibition in titration)	pIC50 (E. coli bd-II oxidase)	residual activity (E. coli bd-II oxidase; isolated bd-II oxidase, partial inhibition in titration)	pIC50 (E. coli bo3 oxidase)	residual activity (E. coli bo3 oxidase; isolated bo3 oxidase, partial inhibition in titration)	pIC50 (mitochondrial complex I)	residual activity (mitochondrial complex I; bovine heart mitochondrial membranes, NADH oxidase activity)	pharmacokinetic properties [3]	effect on the NADH oxidase activity of E. coli membranes ([1]; micromolar concentration range)
FC(F)(F)c1ccc(Oc2ccc(Nc3ncnc4ccccc34)cc2)cc1 [ND-011992, N-(4-(4-(trifluoromethyl)phenoxy)phenyl)quinazolin-4-amine]	6.37	6.59	6.92	6.20	about 20%	5.89	about 20%	5.61	about 20%	5.49	about 20%	poor	–
FC(F)(F)c1ccc(Oc2ccc(Nc3ncnc4ccc(Br)cc34)cc2)cc1 [compound 2, 6-bromo-N-(4-(4-(trifluoromethyl)phenoxy)phenyl)quinazolin-4-amine]	–	–	–	5.99	–	6.89	–	–	–	–	–	–	no effect
